Measured values as given in US11938220B2, “Sustained-release anesthetic compositions and methods of preparation thereof” (TLC Biopharmaceuticals, Inc., priority 2018, dated 2024).

Test system: Sprague-Dawley rats after paw incision
Assay: Anesthetic effect in a paw incision rat model (Von Frey, 50% paw withdrawal threshold)
Format: in vivo
Details: intra-plantar injection after paw incision, 1.9 mg ropivacaine articles, 1.33 mg ER Bupivacaine per incision, 0.5 hour after injection
Text: FIG. 1A is a graph depicting 50% paw withdrawal threshold by a Von Frey test; wherein an anesthetic composition in accordance with the present disclosure (Ropivacaine composition) is our test article and ropivacaine injectable solution (unformulated ropivacaine) and commercial extended release liposomal bupivacaine (ER Bupivacaine) are used as reference articles. Saline, Ropivacaine composition, Ropivacaine injectable solution, and ER Bupivacaine were intra-plantarly administered after paw incision; the error bars represent the standard error of mean (SEM); and *:P<0.05 when compared to ER Bupivacaine group; BBL=Before surgery baseline; ABL=After surgery baseline.
FIG. 1B is a graph depicting the percentage of maximum possible effects (% MPE), calculated from the 50% paw withdrawal threshold using the formula % MPE=(Thresholdaftertreatment−ABL)/(BBL−ABL)×100%; wherein the error bars represent the standard error of mean (SEM); *:P<0.05 when compared to ER Bupivacaine group. MPE over 30% is considered effective;
Sprague-Dawley rats were used for evaluating the anesthetic efficacy after paw incision as described in Pain. 1996 March; 64(3):493-501. […]
Before surgery baselines (BBL) of 27 rats were measured −1 to −3 days prior to surgery; after surgery baselines (ABL) of 27 rats were measured 30 minutes after surgery. […]

CCCN1CCCC[C@H]1C(=O)Nc1c(C)cccc1C [unformulated ropivacaine, ropivacaine]
50% paw withdrawal threshold at T=0.5 hour: 11.47 g
